# Measured values: patent US7947706B2, “Substituted pyrrolopyridines, compositions containing them, manufacturing process therefor and use thereof” (Sanofi-Aventis Deutschland GmbH, priority 2005, dated 2011)
row,melting point,SMILES
1,252 °C,"NC(=O)c1[nH]c2cnccc2c1-c1ccc(NC(=O)Nc2cccc(F)c2)cc1 [Example 48, 3-{4-[3-(3-Fluorophenyl)ureido]phenyl}-1H-pyrrolo[2,3-c]-pyridine-2-carboxamide]"
2,240 °C,"NC(=O)c1[nH]c2cnccc2c1-c1ccc(NC(=O)Nc2cccc(C(F)(F)F)c2F)cc1 [Example 49, 3-{4-[3-(2-Fluoro-3-trifluoromethylphenyl)ureido]phenyl}-1H-pyrrolo[2,3-c]pyridine-2-carboxamide]"
3,261 °C,"NC(=O)c1[nH]c2cnccc2c1-c1ccc(NC(=O)Nc2cc(F)cc(C(F)(F)F)c2)cc1 [Example 50, 3-{4-[3-(3-Fluoro-5-trifluoromethylphenyl)ureido]phenyl}-1H-pyrrolo[2,3-c]pyridine-2-carboxamide]"
4,201 °C,"NC(=O)c1[nH]c2cnccc2c1-c1ccc(NC(=O)Nc2ccc(F)c(C(F)(F)F)c2)cc1 [Example 51, 3-{4-[3-(4-Fluoro-3-trifluoromethylphenyl)ureido]phenyl}-1H-pyrrolo[2,3-c]pyridine-2-carboxamide]"
5,199 °C,"Cc1ccc(NC(=O)Nc2ccc(-c3c(C(N)=O)[nH]c4cnccc34)cc2)cc1C(F)(F)F [Example 52, 3-{4-[3-(4-Methyl-3-trifluoromethylphenyl)ureido]phenyl}-1H-pyrrolo[2,3-c]pyridine-2-carboxamide]"
6,270 °C,"Cc1ccccc1NC(=O)Nc1ccc(-c2c(C(N)=O)[nH]c3cnccc23)cc1 [Example 56, 3-[4-(3-o-Tolylureido)phenyl]-1H-pyrrolo[2,3-c]pyridine-2-carboxamide]"
7,275 °C,"COc1ccc(NC(=O)Nc2ccc(-c3c(C(N)=O)[nH]c4cnccc34)cc2)cc1 [Example 57, 3-{4-[3-(4-Methoxyphenyl)ureido]phenyl}-1H-pyrrolo[2,3-c]pyridine-2-carboxamide]"
8,267 °C,"NC(=O)c1[nH]c2cnccc2c1-c1ccc(NC(=O)Nc2ccc(OC(F)F)c(Cl)c2)cc1 [Example 58, 3-{4-[3-(3-Chloro-4-difluoromethoxyphenyl)ureido]phenyl}-1H-pyrrolo[2,3-c]pyridine-2-carboxamide]"
9,188 °C,"Cc1cc(C)cc(NC(=O)Nc2ccc(-c3c(C(N)=O)[nH]c4cnccc34)cc2)c1 [Example 59, 3-{4-[3-(3,5-Dimethylphenyl)ureido]phenyl}-1H-pyrrolo[2,3-c]pyridine-2-carboxamide]"
10,257 °C,"CCc1cccc(NC(=O)Nc2ccc(-c3c(C(N)=O)[nH]c4cnccc34)cc2)c1 [Example 60, 3-{4-[3-(3-Ethylphenyl)ureido]phenyl}-1H-pyrrolo[2,3-c]-pyridine-2-carboxamide]"
11,254 °C,"CCc1cccc(NC(=O)Nc2ccc(-c3c(C(N)=O)[nH]c4ncccc34)cc2)c1 [Example 61, 3-{4-[3-(3-Ethylphenyl)ureido]phenyl}-1H-pyrrolo[2,3-b]-pyridine-2-carboxamide]"
